In general, Ki refers to the dissociation constant of the complex between target and ligand, obtained from inhibition or displacement.

We go through eleven compounds from patent US20150065466A1, “NOVEL DXR INHIBITORS FOR ANTIMICROBIAL THERAPY” (priority 2012, published 2015).

Like-named read-outs stand apart in the source and are kept apart here.

One data set concerns P. falciparum 3D7 strain. Nature of the data set: P. falciparum proliferation, DAPI fluorescence assay, 3D7 strain. The note with it: read-out: IC50 against P. falciparum proliferation, 3D7 strain. The format is cell-based.
In a further data set the test system is T. gondii. The note with it: study from the Moreno group; cited from earlier work.
In the next data set the test system is P. aeruginosa isolates. Particulars: Neu and Kamimura, 1981; cited from earlier work.
Data set [1] concerns T. gondii engineered to express the bacterial GlpT. The note with it: Nair et al., 2011; cited from earlier work.
The conditions of data set [2]: cited from earlier work; for half life in plasma: human plasma, patients; for oral availability: human, in vivo.
The next data set deals with TgDXR (Toxoplasma gondii, UniProt S8ESX0). The format is biochemical, T. gondii.
TgDXR, sequence (S8ESX0 entry or part of it): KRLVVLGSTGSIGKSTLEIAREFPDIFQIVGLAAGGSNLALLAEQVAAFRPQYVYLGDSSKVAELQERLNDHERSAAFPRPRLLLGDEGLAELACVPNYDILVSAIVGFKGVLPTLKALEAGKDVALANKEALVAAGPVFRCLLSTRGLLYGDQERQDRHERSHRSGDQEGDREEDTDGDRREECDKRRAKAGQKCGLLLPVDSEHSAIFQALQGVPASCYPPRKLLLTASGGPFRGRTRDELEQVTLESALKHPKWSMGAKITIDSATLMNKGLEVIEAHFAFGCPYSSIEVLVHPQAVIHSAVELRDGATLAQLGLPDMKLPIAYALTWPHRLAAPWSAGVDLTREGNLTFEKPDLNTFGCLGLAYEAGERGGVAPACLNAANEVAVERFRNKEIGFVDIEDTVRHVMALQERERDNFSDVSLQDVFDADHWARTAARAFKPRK
The test system of the next data set is P. falciparum Dd2 strain. Nature of the data set: P. falciparum proliferation, DAPI fluorescence assay, Dd2 strain. Particulars: read-out: IC50 against P. falciparum proliferation, Dd2 strain. The format is cell-based.
The test system of another data set is WI-38 (fibroblast). Briefly: cytotoxicity, MTS assay, WI-38. The format is cell-based, human. The note with it: at 300 μM, 48 h. Here is the method:
PfDXR inhibitors SYC-466, -467, -408, -409 were tested against three non-cancerous human cell lines, i.e., WI-38 (fibroblast), HEK293 (kidney) and Beas2B (lung epithelial), to evaluate the potential toxicity of these compounds, using an assay routinely perform (41). 1×10^5 cells are inoculated into each well of a 96-well plate and cultured in Dulbecco's Modified Eagle's Medium (DMEM) supplemented with 10% fetal bovine serum at 37° C. in a 5% CO2 atmosphere with 100% humidity overnight for cell attachment. After addition of compounds (from 0.1-300 μM), plates are incubated for 48 h after which cell viability are assessed by the [3-(4,5-dimethylthiazol-2-yl)-5-(3-carboxymethoxyphenyl)-2-(4-sulfophenyl)-2H-tetrazolium, inner salt (MTS) assay, using a commercially available kit (Promega). IC50s of each compound can be calculated from dose response curves.
Background: Tetrazolium dyes change colour on reduction, which living cells bring about.

The test system of a further data set is A549. Briefly: cytotoxicity, MTS assay, A549. In kind it is cell-based, human. Particulars: at 300 μM, 48 h.
The target of data set [3] is T1, EcDXR (Escherichia coli, UniProt P45568). Briefly: recombinant EcDXR enzyme inhibition. In kind it is biochemical, E. coli.
T1 sequence (P45568 whole entry): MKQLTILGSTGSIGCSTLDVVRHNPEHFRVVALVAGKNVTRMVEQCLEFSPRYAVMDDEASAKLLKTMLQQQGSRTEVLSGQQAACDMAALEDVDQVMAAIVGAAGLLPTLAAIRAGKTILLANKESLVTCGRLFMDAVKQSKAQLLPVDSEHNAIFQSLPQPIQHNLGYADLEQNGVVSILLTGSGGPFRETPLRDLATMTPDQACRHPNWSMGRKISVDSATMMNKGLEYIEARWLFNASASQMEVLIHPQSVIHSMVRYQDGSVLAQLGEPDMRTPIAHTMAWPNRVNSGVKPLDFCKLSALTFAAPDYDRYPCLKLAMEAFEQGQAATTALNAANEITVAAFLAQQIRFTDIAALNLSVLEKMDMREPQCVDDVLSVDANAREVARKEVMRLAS
Data set [4] has as its target T2, PfDXR (Plasmodium falciparum, UniProt Q8IKG4).
T2 sequence (Q8IKG4 75-488): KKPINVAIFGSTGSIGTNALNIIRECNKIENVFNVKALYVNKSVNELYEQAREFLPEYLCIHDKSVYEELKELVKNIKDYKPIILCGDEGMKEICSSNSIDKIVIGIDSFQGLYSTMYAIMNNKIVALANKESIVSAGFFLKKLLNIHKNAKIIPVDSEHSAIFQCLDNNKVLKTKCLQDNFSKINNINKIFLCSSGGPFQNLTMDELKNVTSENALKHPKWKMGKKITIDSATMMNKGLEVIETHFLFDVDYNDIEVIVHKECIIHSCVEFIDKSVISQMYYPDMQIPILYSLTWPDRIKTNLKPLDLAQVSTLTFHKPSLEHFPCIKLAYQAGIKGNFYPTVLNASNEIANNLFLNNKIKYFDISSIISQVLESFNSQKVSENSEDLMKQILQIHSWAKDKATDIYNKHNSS
Nature of the data set: recombinant PfDXR enzyme inhibition. The format is biochemical, P. falciparum.

The target of data set [5] is T1, EcDXR. Particulars: cited from earlier work.
In a further data set the test system is Hela. Nature of the data set: cytotoxicity, MTS assay, Hela. In kind it is cell-based, human. Particulars: at 300 μM, 48 h.
In data set [6] the target is T2, PfDXR. The note with it: Table 2, data from literature (footnote a); cited from earlier work.
[7] abbreviates: Plasmodium falciparum, 3D7, Erythrocyte, 72 h.
[8] abbreviates: Plasmodium falciparum, DD2, Erythrocyte, 72 h.
Where [9] appears, read: 3D7 (chloroquine sensitive), erythrocyte stage, 3 days.
[10] abbreviates: read-out: Ki against recombinant EcDXR.
[11] abbreviates: Table 1, read-out: Enzyme Ki PfDXR.
Where [12] appears, read: 100 nM TgDXR, 4 mM MgCl2, 100 μM DXP, pH 7.6, read-out: Ki TgDXR.
The mark [13] stands for this setting: Dd2 (multidrug resistant), erythrocyte stage, 3 days.

With `O=CN(O)CCCP(=O)(O)O` [Fosmidomycin], the IC50 in the data set with P. falciparum 3D7 strain (setting [7]) was determined as 1170 nM; in the data set on P. falciparum Dd2 strain (setting [8]), 440 nM. Moreover, the “activity on T. gondii parasite” value in the data set on T. gondii was “no activity”. In the data set with P. aeruginosa isolates, the “MIC50 (inhibits 50% of P. aeruginosa isolates)” value is 6.25 µg/mL. The “killing of T. gondii expressing GlpT” value in [1] is on record as “can effectively kill”. For the same compound, the “half life in plasma” value in [2] was 30 to 90 min; in data set [2] (listed as 1), about 60 min. The oral availability result in [2] is reported as “low”; in data set [2] (listed as 1) it was “poor”. Besides, the Ki at TgDXR (read-out: Ki against TgDXR) was found to be 90 nM.
In the case of `O=CN(O)CCC(c1ccncc1)P(=O)(O)O` (stereo not drawn) [SYC-467], the IC50 with P. falciparum 3D7 strain (setting [9]) worked out at 180 nM; with P. falciparum Dd2 strain (setting [13]), 170 nM. For the same compound, in the data set with WI-38 (fibroblast), the “cytotoxicity against growth of WI-38 cells” value (“cytotoxicity … of WI-38 cells” for short) is given as “essentially no cytotoxicity”. In the data set on A549, the “cytotoxicity against growth of A549 cells” value (from here on “cytotoxicity … of A549 cells”) is given as “essentially no cytotoxicity”. In addition, the Ki on EcDXR [3] (setting [10]) was 35 nM; at PfDXR [4] (setting [11]) it was 8.9 nM; at EcDXR [5], 35 nM; at TgDXR (setting [12]) it was 79 nM; on TgDXR (read-out: Ki against TgDXR) it was 79 nM. Besides, the “cytotoxicity against growth of Hela cells” value (“cytotoxicity … of Hela cells” for short) with Hela is given as “essentially no cytotoxicity”.
On to `O=P(O)(O)Cc1ccccn1` [Compound 3], for which the Ki at PfDXR [6] is 3300 nM; on EcDXR [5], 2300 nM; at TgDXR (setting [12]) it was 4100 nM. At TgDXR, the “Ki against TgDXR, in words” value is recorded as “low μM range”.
On to `CC(=O)N(O)CCCP(=O)(O)O` [FR900098], for which the Ki at PfDXR [6] is 11 nM; at EcDXR [5] (Table 2, data from literature (footnote a)), 19 nM; at TgDXR (setting [12]), 48 nM; at TgDXR (read-out: Ki against TgDXR) it was 48 nM.
Turning to `CC(=O)N(O)CCC(c1ccc(Cl)c(Cl)c1)P(=O)(O)O` (stereo not drawn) [Compound 11], the figures for the Ki at PfDXR [6], on EcDXR [5] and on TgDXR (setting [12]) were 25 nM, 36 nM and 220 nM, respectively.
As for `CCN(CC)CCCC(C)Nc1ccnc2cc(Cl)ccc12` (stereo not drawn) [chloroquinone, reference compound], the IC50 in the data set on P. falciparum 3D7 strain (Plasmodium falciparum, 72 h, 3D7 (chloroquine sensitive), erythrocyte stage, 3 days) was determined as 28 nM; in the data set on P. falciparum Dd2 strain (Plasmodium falciparum, 72 h, Dd2 (multidrug resistant), erythrocyte stage, 3 days), 111 nM.
With gentamicin, the “MIC50 (inhibits 50% of P. aeruginosa isolates)” value in the data set on P. aeruginosa isolates is 12.5 µg/mL.
Regarding `CC(=O)N(O)CCC(c1ccncc1)P(=O)(O)O` (stereo not drawn) [SYC-409], the values for the IC50 with P. falciparum 3D7 strain (setting [9]) and with P. falciparum Dd2 strain (setting [13]) were 630 nM and 460 nM, respectively. The “cytotoxicity … of WI-38 cells” value with WI-38 (fibroblast) was “essentially no cytotoxicity”. Moreover, the “cytotoxicity … of A549 cells” value in the data set on A549 is given as “essentially no cytotoxicity”. Further, the Ki was 82 nM on EcDXR [3] (setting [10]), 13 nM on PfDXR [4] (setting [11]), 82 nM at EcDXR [5] and 530 nM at TgDXR (setting [12]). The “cytotoxicity … of Hela cells” value in the data set with Hela is on record as “essentially no cytotoxicity”.
With `O=CN(O)CCC(c1cccnc1)P(=O)(O)O` (stereo not drawn) [SYC-466], the figures for the IC50 with P. falciparum 3D7 strain (setting [7]) and in the data set on P. falciparum Dd2 strain (setting [8]) were 340 nM and 180 nM, respectively. In addition, the Ki on PfDXR [6] was 13 nM; on EcDXR [3] (Table 1, read-out: Enzyme Ki EcDXR), 87 nM; at PfDXR [4], 13 nM; on TgDXR (read-out: Ki against TgDXR), 55 nM. The “cytotoxicity … of WI-38 cells” value in the data set with WI-38 (fibroblast) is “essentially no cytotoxicity”. Further, in the data set on A549, the “cytotoxicity … of A549 cells” value is on record as “essentially no cytotoxicity”. The “cytotoxicity … of Hela cells” value in the data set on Hela is given as “essentially no cytotoxicity”.
For the compound `CC(=O)N(O)CCC(c1cccnc1)P(=O)(O)O` (stereo not drawn) [SYC-408], the results for the IC50 in the data set with P. falciparum 3D7 strain (setting [9]) and with P. falciparum Dd2 strain (setting [13]) were 440 nM and 310 nM, respectively. In addition, the “cytotoxicity … of WI-38 cells” value in the data set on WI-38 (fibroblast) is reported as “essentially no cytotoxicity”. For the same compound, the “cytotoxicity … of A549 cells” value in the data set on A549 is given as “essentially no cytotoxicity”. In addition, the Ki at EcDXR [3] (setting [10]) was 42 nM; on PfDXR [4] (listed as 5a, read-out: Ki against PfDXR) it was 1.9 nM; at EcDXR [5] it was 42 nM; on TgDXR (setting [12]), 970 nM. Moreover, on PfDXR [4] (ratio of Ki values), the “fold more active than fosmidomycin against PfDXR” value is about 10 fold. Further, in the data set with Hela, the “cytotoxicity … of Hela cells” value is “essentially no cytotoxicity”.
As to `O=CN(O)CCC(c1ccc(Cl)c(Cl)c1)P(=O)(O)O` (stereo not drawn) [Compound 10], the Ki is 15 nM on PfDXR [6], 58 nM on EcDXR [5], 77 nM at TgDXR (setting [12]) and 77 nM on TgDXR (read-out: Ki against TgDXR).
